# Measurements reported in the OPERA property sets (Mansouri et al. 2018).
# Conditions: not given
Structure (SMILES),melting point [°C],boiling point [°C],log10 vapour pressure (mmHg),ready biodegradability,log10 Henry constant (atm·m³/mol),log10 Koa,log10 Koc (L/kg)
C=CCOc1nc(OCC=C)nc(OCC=C)n1,27,–,–,–,–,–,–
FC(Br)(Br)Br,-73.6,108,–,–,–,–,–
O=C(NC(=O)c1c(F)cccc1F)Nc1ccc(CO/N=C(/c2ccc(Cl)cc2)C2CC2)cc1,–,–,-9.39,–,–,–,–
OCCCCCCCCO,63,–,–,–,–,–,–
CC(=O)C(N=Nc1ccc(-c2ccc(N=NC(C(C)=O)C(=O)Nc3ccccc3C)c(Cl)c2)cc1Cl)C(=O)Nc1ccccc1C (stereo unspecified),–,–,–,not readily biodegradable,–,–,–
ClC(Cl)c1ccccc1,-17,205,-0.328,readily biodegradable,–,–,–
N[C@@H](CCC(=O)O)C(=O)O,–,–,-7.77,readily biodegradable,–,–,–
CC1(CCl)CO1 (stereo unspecified),–,122,–,not readily biodegradable,–,–,–
CC(C)(C)C(C)(C)O,17,131,–,–,–,–,–
OCCC(F)(F)F,–,99.5,–,–,–,–,–
FC(Cl)=C(Cl)Cl,-109,71,–,–,–,–,–
CCC(C)=O,-86.6,–,1.96,readily biodegradable,-4.24,2.71,–
CC(C)c1ccccc1C(=O)O,–,–,-3.46,–,–,–,–
OCc1c[nH]c2ccccc12,97.5,–,–,–,–,–,–
O[C@H](CCl)[C@H](O)CCl,126,–,–,–,–,–,–
CCCCCCCC(=O)Oc1c(I)cc(C#N)cc1I,59.5,–,–,–,–,–,–
CC(=O)c1ccccc1C,–,214,–,–,–,–,–
Cc1ccc(O)c(N=Nc2ccccc2)c1,108,–,–,–,–,–,–
NCC(F)(F)F,–,37.5,–,–,–,–,–
Cc1ccccc1C(C)C,-71.5,178,0.176,not readily biodegradable,–,–,–
CC1=CC(=O)C(C(C)C)=CC1=O,45.5,232,–,–,–,–,–
CC(=O)C#N,–,92.3,–,–,–,–,–

Structure (SMILES),melting point [°C],boiling point [°C],log10 vapour pressure (mmHg),ready biodegradability,log10 Henry constant (atm·m³/mol),log10 Koa,log10 Koc (L/kg)
O=C(O)C1CCNCC1,336,–,–,–,–,–,–
NCCc1ccc(Br)cc1,–,–,–,readily biodegradable,–,–,–
CCOCN(C(=O)CCl)c1c(C)cccc1CC,–,–,–,–,–,–,2.32
CCO[Si](C)(OCC)OCC,–,142,–,–,–,–,–
CC(=O)[C@@]1(C)CC[C@H]2[C@@H]3CCC4=CC(=O)CCC4=C3CC[C@@]21C,106,–,–,–,–,–,–
CCCCOC(=O)CCC(C)=O,–,238,–,–,–,–,–
CCOc1cc(C=O)ccc1O,77.5,294,-4.98,readily biodegradable,–,–,–
Clc1cc(Cl)c2c(c1)Oc1cc(Cl)c(Cl)cc1O2,194,–,-8.2,–,–,–,–
CN(C)CC(=O)O,186,–,–,–,–,–,–
O=c1[nH]c(=O)n([C@H]2C[C@H](O)[C@@H](CO)O2)cc1I,263,–,–,–,–,–,–
CCCCCCCCCCCCCCCCCC(=O)OC[C@@H](O)[C@H]1OC[C@H](O)[C@H]1O,57,–,–,–,–,–,–
COCCC#N,–,163,–,–,–,–,–
CCOC(=O)CCBr,–,179,–,–,–,–,–
N#C/C(=N\OCC1OCCO1)c1ccccc1,77.7,–,-5.4,–,–,–,–
CCOCC(O)CO (stereo unspecified),–,222,–,–,–,–,–
ClC(Cl)(Cl)Br,-5.7,105,1.59,–,–,–,–
O=C(c1ccc(F)cc1)C1CCN(CCn2c(=O)[nH]c3ccccc3c2=O)CC1,231,–,–,–,–,–,–
CC(=O)c1ccccc1C(=O)O,114,–,–,–,–,–,–
CCCCCCCCCCCCCCCCCBr,32,349,-4.74,–,–,–,–
BrCCCCCBr,-39.5,222,–,–,–,–,–
CCN1C[C@]2(COC)[C@H](O)C[C@H](OC)[C@]34C1[C@H]([C@H](OC)[C@H]23)[C@]1(OC(C)=O)[C@H]2[C@@H](OC(=O)c3ccccc3)[C@](O)(C[C@H]24)[C@@H](OC)[C@@H]1O,204,–,–,–,–,–,–
CC(=O)c1cccc2ccccc12,34,297,-3.41,–,–,–,–

Structure (SMILES),melting point [°C],boiling point [°C],log10 vapour pressure (mmHg),ready biodegradability,log10 Henry constant (atm·m³/mol),log10 Koa,log10 Koc (L/kg)
Nc1ccc(C(=O)N[C@@H](CCC(=O)O)C(=O)O)cc1,173,–,–,–,–,–,–
CC(C)=CC=O,–,134,–,–,–,–,–
CC(Cc1ccc(O)c(O)c1)C(C)Cc1ccc(O)c(O)c1 (stereo unspecified),186,–,–,–,–,–,–
CNC,–,6.8,3.18,readily biodegradable,-4.75,2,–
Cc1cc(OC(=O)N(C)C)nn1C(=O)N(C)C,69.5,–,-4.01,–,–,–,–
c1ccc(CN2CCCCC2)cc1,–,245,–,–,–,–,–
CCCCC1C(=O)NN(c2ccccc2)C1=O (stereo unspecified),102,–,–,–,–,–,–
CCCCOCCOC(=O)COc1cc(Cl)c(Cl)cc1Cl,–,–,-5.82,–,–,–,–
S=C(S)NCCNC(=S)S,–,–,–,not readily biodegradable,–,–,–
FC(F)Cl,-157,-40.7,3.86,not readily biodegradable,-1.39,–,–
COc1c(F)c(F)cc(F)c1F,–,138,–,–,–,–,–
N#Cc1c(F)cccc1F,31,–,–,–,–,–,–
O=C1c2ccccc2C(=O)c2c1cccc2S(=O)(=O)O,–,–,–,not readily biodegradable,–,–,–
CCC(O)C(C)O (stereo unspecified),–,188,–,–,–,–,–
CC(C)COP(=O)(OCC(C)C)OCC(C)C,–,264,–,–,–,–,–
CC(O)CN(CCN(CC(C)O)CC(C)O)CC(C)O (stereo unspecified),–,–,–,not readily biodegradable,–,–,–
CC(=O)c1cc(C(C)C)ccc1C,–,250,–,–,–,–,–
CC(=O)Oc1c(C)cc(OCC(O)CNC(C)C)c(C)c1C (stereo unspecified),106,–,–,–,–,–,–
CCOc1ccccc1C=O,21,248,–,–,–,–,–
CCN1CCCC1CNC(=O)c1cc(S(=O)(=O)CC)c(N)cc1OC (stereo unspecified),126,–,–,–,–,–,–
OCCc1ccc(O)cc1,90,–,–,–,–,–,–
COc1ccc2c(c1)c(CC(=O)OCC(=O)O)c(C)n2C(=O)c1ccc(Cl)cc1,152,–,–,–,–,–,–

Structure (SMILES),melting point [°C],boiling point [°C],log10 vapour pressure (mmHg),ready biodegradability,log10 Henry constant (atm·m³/mol),log10 Koa,log10 Koc (L/kg)
C=CCCCCCC,-102,121,1.24,–,–,3.35,–
CCC(=O)N(C)C,-45,174,–,–,–,–,–
CCC(CC)[N+](=O)[O-],–,–,–,readily biodegradable,–,–,–
O=[N+]([O-])c1cccc2cccc(Cl)c12,95.8,–,–,–,–,–,–
Cc1cc(C(C)(C)C)cc(C)c1CC1=NCCN1,132,–,–,–,–,–,–
Cc1ccc(S)c(S)c1,29,–,–,–,–,–,–
CC(C)(C)c1cccc(O)c1,42.3,240,-1.7,not readily biodegradable,–,–,–
CCOC(=O)C1(C)OC(=O)N(c2cc(Cl)cc(Cl)c2)C1=O (stereo unspecified),113,–,-7.02,–,–,–,–
Cc1ccc(O)c(C)c1C,81,236,–,–,–,–,–
O=S(=O)(O)c1ccc(O)cc1,–,–,–,readily biodegradable,–,–,–
CCCCN=C=O,–,115,1.25,–,–,–,–
CC(C)CC(O)C(C)C (stereo unspecified),–,158,–,–,–,–,–
CCCCCCC(=O)CCCCCC,33,261,-2.18,–,–,–,–
C1=CCc2ccccc2C1,25,212,–,–,–,–,–
CC(C)[C@@H]1CC[C@@H](C)CC1=O,-6,207,–,–,–,–,–
CCCC(=O)c1c(C)cc(C)c(C2CC(=O)C(C(CC)=NOCC)=C(O)C2)c1C (stereo unspecified),80.8,–,-8.12,–,–,–,–
N#CCc1ccccc1[N+](=O)[O-],84,–,–,–,–,–,–
Clc1cccc2c(Cl)cccc12,107,–,–,–,–,6.65,–
CCCC(C)(C)Br,–,142,–,–,–,–,–
COc1ccc(CO)cc1OC,–,298,–,–,–,–,–
CC(=O)[O-].[NH4+],114,–,–,–,–,–,–
CCC(C)(C)CC(C)(C)C,–,154,–,–,–,–,–

Structure (SMILES),melting point [°C],boiling point [°C],log10 vapour pressure (mmHg),ready biodegradability,log10 Henry constant (atm·m³/mol),log10 Koa,log10 Koc (L/kg)
NCCCCCCCCCCC(=O)O,191,–,–,–,–,–,–
CC(C)CN1CCOCC1,–,181,–,not readily biodegradable,–,–,–
Sc1cccc(Cl)c1,–,206,–,–,–,–,–
c1ccc2sncc2c1,38,220,–,–,–,–,–
C/C(=C\CNc1ncnc2[nH]cnc12)CO,208,–,–,–,–,–,–
CC(C)(N=C=O)c1ccc(C(C)(C)N=C=O)cc1,–,–,-3.12,–,–,–,–
Brc1ccc(Br)cc1,87.3,218,-1.24,not readily biodegradable,–,5.21,–
COC(C)CO (stereo unspecified),–,130,–,–,–,–,–
c1ccc2cnncc2c1,90.5,316,–,–,–,–,–
CCc1c(C)c[nH]c1C,0,199,–,–,–,–,–
C[C@]1(C(=O)O)CCC[C@]2(C)c3cc(O)ccc3CC[C@@H]12,194,–,–,–,–,–,–
CC(=O)Oc1ccccc1C(=O)Oc1ccccc1,96,–,–,–,–,–,–
CC=C(C)C(C)C,–,–,1.83,–,–,–,–
C/C=C/c1cc2c(c(=O)o1)C(=O)[C@@H](O)[C@H](C)O2,222,–,–,–,–,–,–
CN(C)C1CSSC1,177,–,–,–,–,–,–
CCOC(=O)[C@@H](C)Oc1ccc(Oc2nc3ccc(Cl)cc3o2)cc1,–,–,-7.52,–,–,–,–
O=C(O)Cc1ccccc1O,148,240,–,–,–,–,–
COc1ccc(C(=O)O)cc1,185,276,–,readily biodegradable,–,–,–

# Same assay, conditions: fish
Structure (SMILES),log10 BCF,log10 biotransformation half-life (days)
COc1cc(Cl)c(Cl)c(Cl)c1,3.09,–
CC(C)CN1CCOCC1,0.25,–
Brc1ccc(Br)cc1,2.21,0.31
CN(C)C1CSSC1,1.72,–
